Results as given in patent US10526327B2, “Histone demethylase inhibitors” (CELGENE QUANTICEL RESEARCH, INC., priority 2013, dated 2020).

Molecular target: T1, Jarid1A (Homo sapiens, UniProt P29375)
T1 construct: purchased BPS Bioscience 50110
T1 sequence (P29375 1-1090): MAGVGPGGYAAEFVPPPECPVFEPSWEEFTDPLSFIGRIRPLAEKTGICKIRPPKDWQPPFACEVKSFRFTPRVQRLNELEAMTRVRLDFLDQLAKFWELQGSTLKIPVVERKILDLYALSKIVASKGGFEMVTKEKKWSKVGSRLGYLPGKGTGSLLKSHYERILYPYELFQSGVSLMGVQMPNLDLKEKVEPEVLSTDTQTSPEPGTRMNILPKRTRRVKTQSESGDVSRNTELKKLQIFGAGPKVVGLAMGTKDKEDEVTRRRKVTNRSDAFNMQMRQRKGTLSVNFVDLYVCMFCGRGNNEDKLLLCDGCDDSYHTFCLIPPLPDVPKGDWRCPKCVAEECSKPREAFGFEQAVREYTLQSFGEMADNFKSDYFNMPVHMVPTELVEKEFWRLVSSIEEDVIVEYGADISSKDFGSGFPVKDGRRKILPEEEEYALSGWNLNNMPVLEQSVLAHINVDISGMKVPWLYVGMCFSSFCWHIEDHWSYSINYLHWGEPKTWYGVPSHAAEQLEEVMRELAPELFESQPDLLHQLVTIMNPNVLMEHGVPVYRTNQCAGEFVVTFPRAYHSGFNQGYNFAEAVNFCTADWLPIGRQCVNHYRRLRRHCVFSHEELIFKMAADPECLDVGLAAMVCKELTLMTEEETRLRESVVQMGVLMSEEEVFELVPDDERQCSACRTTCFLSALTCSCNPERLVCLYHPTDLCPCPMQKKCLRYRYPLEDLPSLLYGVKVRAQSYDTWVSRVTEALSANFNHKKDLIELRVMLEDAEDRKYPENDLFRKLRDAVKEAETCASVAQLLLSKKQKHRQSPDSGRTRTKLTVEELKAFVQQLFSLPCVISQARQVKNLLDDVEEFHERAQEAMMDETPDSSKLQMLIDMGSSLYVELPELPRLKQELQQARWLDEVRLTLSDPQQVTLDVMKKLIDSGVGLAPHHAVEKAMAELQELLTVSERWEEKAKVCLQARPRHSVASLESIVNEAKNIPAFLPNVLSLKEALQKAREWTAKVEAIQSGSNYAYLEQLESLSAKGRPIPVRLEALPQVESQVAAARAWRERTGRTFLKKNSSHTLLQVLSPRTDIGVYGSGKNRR
Experiment: Jarid1A in vitro enzyme inhibition assay (TR-FRET)
Format: biochemical
Outline: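 Demethylation of 300 nM biotin-H3K4me3 peptide by 1 nM baculovirus-expressed Jarid1A (aa 1–1090) with 2 μM α-ketoglutarate, Fe(II) and ascorbate, pH 7.3, 30 min at room temperature. Stopped with EDTA; H3K4me1-2 product detected by TR-FRET (Eu anti-H3K4me1-2/streptavidin-APC). IC50 fitted from 665/615 ratio over 11-point dilutions.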

Compound | IC50 [nM]
O=S(=O)(C1CC1)N1CCCC(n2cc(Oc3nc(O)c4ccncc4n3)cn2)C1 (stereo in doubt) [Example 151, 2-({1-[(3S)-1-(cyclopropanesulfonyl)piperidin-3-yl]-1H-pyrazol-4-yl}oxy)pyrido[3,4-d]pyrimidin-4-ol] | ≤ 100
Oc1nc(Oc2cnn(C3CCCN(c4ccc(F)cc4)C3)c2)nc2cnccc12 (stereo in doubt) [Example 169, 2-({1-[(3R)-1-(4-fluorophenyl)piperidin-3-yl]-1H-pyrazol-4-yl}oxy)pyrido[3,4-d]pyrimidin-4-ol] | ≤ 100
Oc1nc(OCCC(F)(F)F)nc2cnccc12 [Example 13, 2-(3,3,3-trifluoropropoxy)pyrido[3,4-d]pyrimidin-4-ol] | ≤ 100
CC(C)COc1nc(O)c2ccncc2n1 [Example 14, 2-(2-methylpropoxy)pyrido[3,4-d]pyrimidin-4-ol] | 100 to 1000
CC(C)CCOc1nc(O)c2ccncc2n1 [Example 15, 2-(3-methylbutoxy)pyrido[3,4-d]pyrimidin-4-ol] | ≤ 100
CCC(C)COc1nc(O)c2ccncc2n1 (stereo not drawn) [Example 16, 2-(2-methylbutoxy)pyrido[3,4-d]pyrimidin-4-ol] | 100 to 1000
CC(COc1nc(O)c2ccncc2n1)c1ccccc1 (stereo not drawn) [Example 17, 2-(2-phenylpropoxy)pyrido[3,4-d]pyrimidin-4-ol] | 100 to 1000
CC(Cc1ccccc1)Oc1nc(O)c2ccncc2n1 (stereo not drawn) [Example 19, 2-(1-phenylpropan-2-yloxy)pyrido[3,4-d]pyrimidin-4-ol] | 1000 to 10000
Oc1nc(OCCCC(F)(F)F)nc2cnccc12 [Example 20, 2-(4,4,4-trifluorobutoxy)pyrido[3,4-d]pyrimidin-4-ol] | ≤ 100
COCCOc1nc(O)c2ccncc2n1 [Example 22, 2-(2-methoxyethoxy)pyrido[3,4-d]pyrimidin-4-ol] | 100 to 1000
Cn1cnc(-c2nccc3c(O)nc(OCc4ccccc4C(F)(F)F)nc23)c1 [Example 107, 8-(1-methyl-1H-imidazol-4-yl)-2-{[2-(trifluoromethyl)phenyl]methoxy}pyrido[3,4-d]pyrimidin-4-ol] | 100 to 1000
Cn1cnc(-c2nccc3c(O)nc(O[C@H](c4ccccc4)C(F)(F)F)nc23)c1 [Example 108, 8-(1-methyl-1H-imidazol-4-yl)-2-[(1R)-2,2,2-trifluoro-1-phenylethoxy]pyrido[3,4-d]pyrimidin-4-ol] | 1000 to 10000
Cn1cnc(-c2nccc3c(O)nc(O[C@@H](c4ccccc4)C(F)(F)F)nc23)c1 [Example 109, 8-(1-methyl-1H-imidazol-4-yl)-2-[(1S)-2,2,2-trifluoro-1-phenylethoxy]pyrido[3,4-d]pyrimidin-4-ol] | 1000 to 10000
CCC(Oc1nc(O)c2ccnc(-c3cn(C)cn3)c2n1)C(F)(F)F (stereo not drawn) [Example 110, 8-(1-methyl-1H-imidazol-4-yl)-2-[(1,1,1-trifluorobutan-2-yl)oxy]pyrido[3,4-d]pyrimidin-4-ol] | 100 to 1000
Cn1cnc(-c2nccc3c(O)nc(OCc4ccc(Cl)cc4)nc23)c1 [Example 112, 2-[(4-chlorophenyl)methoxy]-8-(1-methyl-1H-imidazol-4-yl)pyrido[3,4-d]pyrimidin-4-ol] | 100 to 1000
Oc1nc(Oc2ccc(Cl)c(Cl)c2)nc2cnccc12 [Example 114, 2-(3,4-dichlorophenoxy)pyrido[3,4-d]pyrimidin-4-ol] | 100 to 1000
Oc1nc(Oc2cnn(C(c3ccccc3)C3CC3)c2)nc2cnccc12 (stereo not drawn) [Example 116, 2-({1-[cyclopropyl(phenyl)methyl]-1H-pyrazol-4-yl}oxy)pyrido[3,4-d]pyrimidin-4-ol] | ≤ 100
C[C@@H](c1ccccc1)n1cc(Oc2nc(O)c3ccncc3n2)cn1 [Example 118, 2-({1-[(1S)-1-phenylethyl]-1H-pyrazol-4-yl}oxypyrido) [3,4-d]pyrimidin-4-ol] | ≤ 100
C[C@H](c1ccccc1F)n1cc(Oc2nc(O)c3ccncc3n2)cn1 [Example 119, 2-({1-[(1R)-1-(2-fluorophenyl)ethyl]-1H-pyrazol-4-yl}oxy)pyrido[3,4-d]pyrimidin-4-ol] | ≤ 100
Oc1nc(Oc2cnn(Cc3cccc(Cl)c3)c2)nc2cnccc12 [Example 122, 2-({1-[(3-chlorophenyl)methyl]-1H-pyrazol-4-yl}oxy)pyrido[3,4-d]pyrimidin-4-ol] | ≤ 100
Oc1nc(Oc2cnn(C3CCN(Cc4ccccc4)CC3)c2)nc2cnccc12 [Example 123, 2-{[1-(1-benzylpiperidin-4-yl)-1H-pyrazol-4-yl]oxy}pyrido[3,4-d]pyrimidin-4-ol] | ≤ 100
CCS(=O)(=O)N1CC[C@@H](n2cc(Oc3nc(O)c4ccncc4n3)cn2)C1 [Example 126, 2-({1-[(3R)-1-(ethanesulfonyl)pyrrolidin-3-yl]-1H-pyrazol-4-yl}oxy)pyrido[3,4-d]pyrimidin-4-ol] | ≤ 100
O=S(=O)(C1CC1)N1CC[C@@H](n2cc(Oc3nc(O)c4ccncc4n3)cn2)C1 [Example 127, 2-({1-[(3R)-1-(cyclopropanesulfonyl)pyrrolidin-3-yl]-1H-pyrazol-4-yl}oxy)pyrido[3,4-d]pyrimidin-4-ol] | ≤ 100

Results, then the compound that gave them:

IC50 [nM] | Compound
≤ 100 | Oc1nc(OCCc2ccccc2)nc2cnccc12 [Example 18, 2-(2-phenylethoxy)pyrido[3,4-d]pyrimidin-4-ol]
100 to 1000 | CN(C)CCCOc1nc(O)c2ccncc2n1 [Example 21, 2-[3-(dimethylamino)propoxy]pyrido[3,4-d]pyrimidin-4-ol]
≤ 100 | Cn1cnc(-c2nccc3c(O)nc(OCc4ccc(C(F)(F)F)cc4)nc23)c1 [Example 111, 8-(1-methyl-1H-imidazol-4-yl)-2-{[4-(trifluoromethyl)phenyl]methoxy}pyrido[3,4-d]pyrimidin-4-ol]
≤ 100 | Cn1cnc(-c2nccc3c(O)nc(Oc4ccc(Cl)c(Cl)c4)nc23)c1 [Example 113, 2-(3,4-dichlorophenoxy)-8-(1-methyl-1H-imidazol-4-yl)pyrido[3,4-d]pyrimidin-4-ol]
≤ 100 | CCC(c1ccccc1)n1cc(Oc2nc(O)c3ccncc3n2)cn1 (stereo not drawn) [Example 115, 2-{[1-(1-phenylpropyl)-1H-pyrazol-4-yl]oxy}pyrido[3,4-d]pyrimidin-4-ol]
≤ 100 | C[C@H](c1ccccc1)n1cc(Oc2nc(O)c3ccncc3n2)cn1 [Example 117, 2-({1-[(1R)-1-phenylethyl]-1H-pyrazol-4-yl}oxy)pyrido[3,4-d]pyrimidin-4-ol]
≤ 100 | C[C@@H](c1ccccc1F)n1cc(Oc2nc(O)c3ccncc3n2)cn1 [Example 120, 2-({1-[(1s)-1-(2-fluorophenyl)ethyl]-1H-pyrazol-4-yl}oxy)pyrido[3,4-d]pyrimidin-4-ol]
≤ 100 | Oc1nc(Oc2cnn(Cc3ccccc3Cl)c2)nc2cnccc12 [Example 121, 2-({1-[(2-chlorophenyl)methyl]-1H-pyrazol-4-yl}oxy)pyrido[3,4-d]pyrimidin-4-ol]
≤ 100 | Oc1nc(Oc2cnn(CCN3CCOCC3)c2)nc2cnccc12 [Example 124, 2-({1-[2-(morpholin-4-yl)ethyl]-1H-pyrazol-4-yl}oxy)pyrido[3,4-d]pyrimidin-4-ol]
≤ 100 | Oc1nc(Oc2cnn([C@@H]3CCNC3)c2)nc2cnccc12 [Example 125, 2-({1-[(3R)-pyrrolidin-3-yl]-1H-pyrazol-4-yl}oxy)pyrido[3,4-d]pyrimidin-4-ol]
